Measured values from patent US20100267561A1, “HERBICIDAL PYRIDAZINONE DERIVATIVES” (priority 2007, published 2010).
Read-outs that look alike come from different tables or passages of the source.

Legend:
Experiment in all cases: Test B pre-/postemergence plant response
Assay type in all cases: in vivo
[1] = test system: common (oilseed) sunflower (Helianthus annuus); conditions: Preemergence
Text: (§1) Seeds of plant species selected from blackgrass (Alopecurus myosuroides), downy bromegrass (Bromus tectorum), green foxtail (Setaria viridis), Italian ryegrass (Lolium multiflorum), wheat (Triticum aestivum), wild oat (Avena fatua), catchweed bedstraw (Galium aparine), bermudagrass (Cynodon dactylon), surinam grass (Brachiaria decumbens), cocklebur (Xanthium strumarium), corn (Zea mays), large crabgrass (Digitaria sanguinalis), woolly cupgrass (Eriochloa villosa), giant foxtail (Setaria faberii), goosegrass (Eleusine indica), johnsongrass (Sorghum halepense), kochia (Kochia scoparia), lambsquarters (Chenopodium album), morningglory (Ipomoea coccinea), eastern black (E.B.) nightshade (Solanum ptycanthum), yellow nutsedge (Cyperus esculentus), pigweed (Amaranthus retroflexus), common ragweed (Ambrosia elation), Russian thistle (Salsola iberica), soybean (Glycine max), common (oilseed) sunflower (Helianthus annuus), and velvetleaf (Abutilon theophrasti) were planted and treated preemergence with test chemicals formulated in a non-phytotoxic solvent mixture which included a surfactant.
(§2) At the same time, plants selected from these crop and weed species and also winter barley (Hordeum vulgare), canarygrass (Phalaris minor), chickweed (Stellaria media) and windgrass (Apera spica-venti) were treated with postemergence applications of some of the test chemicals formulated in the same manner. Plants ranged in height from 2 to 18 cm (1- to 4-leaf stage) for postemergence treatments.
(§3) Plant species in the flooded paddy test consisted of rice (Oryza sativa), umbrella sedge (Cyperus difformis), ducksalad (Heteranthera limosa) and barnyardgrass (Echinochloa crus-galli) grown to the 2-leaf stage for testing. At time of treatment, test pots were flooded to 3 cm above the soil surface, treated by application of test compounds directly to the paddy water, and then maintained at that water depth for the duration of the test. Treated plants and controls were maintained in a greenhouse for 13 to 15 days, after which time all species were compared to controls and visually evaluated. Plant response ratings, summarized in Table B, are based on a scale of 0 to 100 where 0 is no effect and 100 is complete control. A dash (-) response means no test result.

corn (Zea mays) = conditions: for Corn plant response rating (crop injury, 0 = no effect, 100 = complete kill) at 31 g/ha: 31 g ai/ha; for Corn plant response rating (crop injury, 0 = no effect, 100 = complete kill) at 62 g/ha: 62 g ai/ha, 100 complete control
Text: as §1, §2, §3

[2] = test system: downy bromegrass (Bromus tectorum); conditions: for pest or weed control at 31 g/ha: 31 g ai/ha; for pest or weed control at 62 g/ha: 62 g ai/ha, 100 complete control
Text: as §1, §2, §3

[3] = test system: green foxtail (Setaria viridis); conditions: for pest or weed control at 31 g/ha: 31 g ai/ha; for pest or weed control at 62 g/ha: 62 g ai/ha, 100 complete control
Text: as §1, §2, §3

[4] = test system: large crabgrass (Digitaria sanguinalis); conditions: for pest or weed control at 31 g/ha: 31 g ai/ha; for pest or weed control at 62 g/ha: 62 g ai/ha, 100 complete control
Text: as §1, §2, §3

[5] = test system: morningglory (Ipomoea coccinea); conditions: for pest or weed control at 31 g/ha / pest or weed control at 62 g/ha: Ipomoea, read-out: Plant response rating, Morningglory; for pest or weed control at 31 g/ha: 31 g ai/ha; for pest or weed control at 62 g/ha: 62 g ai/ha, 100 complete control
Text: as §1, §2, §3

[6] = test system: surinam grass (Brachiaria decumbens); conditions: for pest or weed control at 31 g/ha / pest or weed control at 62 g/ha: Urochloa decumbens, read-out: Plant response rating, Surinam Grass; for pest or weed control at 31 g/ha: 31 g ai/ha; for pest or weed control at 62 g/ha: 62 g ai/ha, 100 complete control
Text: as §1, §2, §3

[7] = test system: velvetleaf (Abutilon theophrasti); conditions: for pest or weed control at 31 g/ha / pest or weed control at 62 g/ha: Abutilon theophrasti, read-out: Plant response rating, Velvetleaf; for pest or weed control at 31 g/ha: 31 g ai/ha; for pest or weed control at 62 g/ha: 62 g ai/ha, 100 complete control
Text: as §1, §2, §3

[8] = test system: wheat (Triticum aestivum); conditions: for plant injury at 31 g/ha / plant injury at 62 g/ha: Triticum aestivum, read-out: Plant response rating, Wheat; for plant injury at 31 g/ha: 31 g ai/ha; for plant injury at 62 g/ha: 62 g ai/ha, 100 complete control
Text: as §1, §2, §3

wild oat (Avena fatua) = conditions: for pest or weed control at 31 g/ha / pest or weed control at 62 g/ha: Avena fatua, read-out: Plant response rating, Oat, Wild; for pest or weed control at 31 g/ha: 31 g ai/ha; for pest or weed control at 62 g/ha: 62 g ai/ha, 100 complete control
Text: as §1, §2, §3

[9] = 8 g ai/ha, postemergence, 0-100 scale
[10] = Preemergence, 8 g ai/ha, scale 0 to 100 (0 no effect, 100 complete control)
[11] = Preemergence, 16 g ai/ha, scale 0 to 100
[12] = 16 g ai/ha, postemergence, 0-100 scale
[13] = post-emergence, Postemergence, scale 0 to 100
[14] = post-emergence, Postemergence, scale 0 to 100, 0 no effect
[15] = pre-emergence, Preemergence, scale 0 to 100 (0 no effect, 100 complete control)
[16] = pre-emergence, Preemergence, 0 to 100 scale, 0 no effect

`Cc1cc(-c2ccc(Br)cc2)nn1-c1c(O)cn[nH]c1=O` [Compound 78, 4-[3-(4-bromophenyl)-5-methyl-1H-pyrazol-1-yl]-5-hydroxy-3(2H)-pyridazinone] was tested, and the pest or weed control at 31 g/ha ([1]; Helianthus annuus, pre-emergence, 31 g ai/ha, scale 0 to 100 (0 no effect, 100 complete control), read-out: Plant response rating, Sunflower) was 0%, the pest or weed control at 62 g/ha ([1]; Helianthus annuus, pre-emergence, 62 g ai/ha, 0 to 100 scale, 0 no effect, 100 complete control, read-out: Plant response rating, Sunflower) was 0% and the “Sunflower plant response rating” value ([1]; 8 g ai/ha, scale 0 to 100 (0 no effect, 100 complete control)) was 0. The “Sunflower plant response rating” value ([1]; 16 g ai/ha, scale 0 to 100) was 0, the “Corn plant response rating” value (corn (Zea mays); [9]) was 40 and the “Corn plant response rating” value (corn (Zea mays); [10]) was 55. The “Corn plant response rating” value (corn (Zea mays); [11]) was 85, the Corn plant response rating (crop injury, 0 = no effect, 100 = complete kill) at 16 g/ha (corn (Zea mays); Zea mays, post-emergence, Postemergence, 16 g ai/ha, scale 0 to 100) was 100% and the Corn plant response rating (crop injury, 0 = no effect, 100 = complete kill) at 31 g/ha (corn (Zea mays); Zea mays, post-emergence, Postemergence, scale 0 to 100) was 100%. The Corn plant response rating (crop injury, 0 = no effect, 100 = complete kill) at 62 g/ha (corn (Zea mays); Zea mays, post-emergence, Postemergence, scale 0 to 100, 0 no effect) was 100%, the Corn plant response rating (crop injury, 0 = no effect, 100 = complete kill) at 31 g/ha (corn (Zea mays); Zea mays, pre-emergence, Preemergence, scale 0 to 100 (0 no effect, 100 complete control)) was 100% and the Corn plant response rating (crop injury, 0 = no effect, 100 = complete kill) at 62 g/ha (corn (Zea mays); Zea mays, pre-emergence, Preemergence, 0 to 100 scale, 0 no effect) was 100%. The “Bromegrass, Downy plant response rating” value [2, 9] was 55, the pest or weed control at 16 g/ha ([2]; Bromus tectorum, post-emergence, Postemergence, 16 g ai/ha, scale 0 to 100, read-out: Plant response rating, Bromegrass, Downy) was 85% and the pest or weed control at 31 g/ha ([2]; Bromus tectorum, post-emergence, Postemergence, scale 0 to 100, read-out: Plant response rating, Bromegrass, Downy) was 95%. It also gave a pest or weed control at 62 g/ha ([2]; Bromus tectorum, post-emergence, Postemergence, scale 0 to 100, 0 no effect, read-out: Plant response rating, Bromegrass, Downy) of 100%, a pest or weed control at 31 g/ha ([2]; Bromus tectorum, pre-emergence, Preemergence, scale 0 to 100 (0 no effect, 100 complete control), read-out: Plant response rating, Bromegrass, Downy) of 80% and a pest or weed control at 62 g/ha ([2]; Bromus tectorum, pre-emergence, Preemergence, 0 to 100 scale, 0 no effect, read-out: Plant response rating, Bromegrass, Downy) of 98%. For the same molecule, the “Bromegrass, Downy plant response rating” value [2, 10] was 40, the “Bromegrass, Downy plant response rating” value [2, 11] was 60 and the “Foxtail, Green plant response rating” value [3, 9] was 40. The “Foxtail, Green plant response rating” value [3, 10] was 100, the “Foxtail, Green plant response rating” value [3, 11] was 100 and the pest or weed control at 16 g/ha ([3]; Setaria viridis, post-emergence, Postemergence, 16 g ai/ha, scale 0 to 100, read-out: Plant response rating, Foxtail, Green) was 60%. For the same molecule, the pest or weed control at 31 g/ha ([3]; Setaria viridis, post-emergence, Postemergence, scale 0 to 100, read-out: Plant response rating, Foxtail, Green) was 80%, the pest or weed control at 62 g/ha ([3]; Setaria viridis, post-emergence, Postemergence, scale 0 to 100, 0 no effect, read-out: Plant response rating, Foxtail, Green) was 100% and the pest or weed control at 31 g/ha ([3]; Setaria viridis, pre-emergence, Preemergence, scale 0 to 100 (0 no effect, 100 complete control), read-out: Plant response rating, Foxtail, Green) was 100%. The pest or weed control at 62 g/ha ([3]; Setaria viridis, pre-emergence, Preemergence, 0 to 100 scale, 0 no effect, read-out: Plant response rating, Foxtail, Green) was 100%, the “Crabgrass, Large plant response rating” value [4, 9] was 98 and the pest or weed control at 16 g/ha ([4]; Digitaria sanguinalis, post-emergence, Postemergence, 16 g ai/ha, scale 0 to 100, read-out: Plant response rating, Crabgrass, Large) was 100%. It also gave a pest or weed control at 31 g/ha ([4]; Digitaria sanguinalis, post-emergence, Postemergence, scale 0 to 100, read-out: Plant response rating, Crabgrass, Large) of 100%, a pest or weed control at 62 g/ha ([4]; Digitaria sanguinalis, post-emergence, Postemergence, scale 0 to 100, 0 no effect, read-out: Plant response rating, Crabgrass, Large) of 100% and a pest or weed control at 31 g/ha ([4]; Digitaria sanguinalis, pre-emergence, Preemergence, scale 0 to 100 (0 no effect, 100 complete control), read-out: Plant response rating, Crabgrass, Large) of 100%. For the same molecule, the pest or weed control at 62 g/ha ([4]; Digitaria sanguinalis, pre-emergence, Preemergence, 0 to 100 scale, 0 no effect, read-out: Plant response rating, Crabgrass, Large) was 100%, the “Crabgrass, Large plant response rating” value [4, 10] was 15 and the “Crabgrass, Large plant response rating” value [4, 11] was 95. For the same molecule, the “Morningglory plant response rating” value [5, 9] was 0, the “Morningglory plant response rating” value [5, 12] was 0 and the pest or weed control at 31 g/ha [5, 13] was 0%. For the same molecule, the pest or weed control at 62 g/ha [5, 14] was 0%, the pest or weed control at 31 g/ha [5, 15] was 0% and the pest or weed control at 62 g/ha [5, 16] was 0%. For the same molecule, the “Morningglory plant response rating” value [5, 10] was 0, the “Morningglory plant response rating” value [5, 11] was 0 and the “Surinam Grass plant response rating” value [6, 9] was 98. For the same molecule, the “Surinam Grass plant response rating” value [6, 12] was 100, the “Surinam Grass plant response rating” value [6, 10] was 95 and the “Surinam Grass plant response rating” value [6, 11] was 95. The pest or weed control at 31 g/ha [6, 13] was 100%, the pest or weed control at 62 g/ha [6, 14] was 100% and the pest or weed control at 31 g/ha [6, 15] was 100%. The pest or weed control at 62 g/ha [6, 16] was 100%, the “Velvetleaf plant response rating” value [7, 9] was 0 and the “Velvetleaf plant response rating” value [7, 12] was 0. It also gave a pest or weed control at 31 g/ha [7, 13] of 0%, a pest or weed control at 62 g/ha [7, 14] of 0% and a pest or weed control at 31 g/ha [7, 15] of 0%. The pest or weed control at 62 g/ha [7, 16] was 0%, the “Velvetleaf plant response rating” value [7, 10] was 0 and the “Velvetleaf plant response rating” value [7, 11] was 0. The “Wheat plant response rating” value [8, 9] was 50, the “Wheat plant response rating” value [8, 12] was 85 and the “Wheat plant response rating” value [8, 10] was 0. For the same molecule, the “Wheat plant response rating” value [8, 11] was 80, the plant injury at 31 g/ha [8, 13] was 98% and the plant injury at 62 g/ha [8, 14] was 100%. For the same molecule, the plant injury at 31 g/ha [8, 15] was 90%, the plant injury at 62 g/ha [8, 16] was 95% and the “Oat, Wild plant response rating” value (wild oat (Avena fatua); [9]) was 98. The “Oat, Wild plant response rating” value (wild oat (Avena fatua); [12]) was 100, the pest or weed control at 31 g/ha (wild oat (Avena fatua); [13]) was 100% and the pest or weed control at 62 g/ha (wild oat (Avena fatua); [14]) was 100%. For the same molecule, the pest or weed control at 31 g/ha (wild oat (Avena fatua); [15]) was 70%, the pest or weed control at 62 g/ha (wild oat (Avena fatua); [16]) was 85% and the “Oat, Wild plant response rating” value (wild oat (Avena fatua); [10]) was 30. The “Oat, Wild plant response rating” value (wild oat (Avena fatua); [11]) was 40.
